Test results as given in patent publication US10213428B2, “(4-((3R,4R)-3-methoxytetrahydro-pyran-4-ylamino)piperidin-1-yl)(5-methyl-6-(((2R,6S)-6-(p-tolyl)tetrahydro-2H-pyran-2-yl)methylamino)pyrimidin-4-yl)methanone citrate” (Centrexion Therapeutics Corporation, priority 2015, dated 2019).
Where two headings read alike, the source gives them in different places.

Assays:
Assay type in all cases: physicochemical
[1] = Dynamic vapour sorption (sorption isotherms, water uptake); settings: for hygroscopic behavior: uptake of water: 25° C.
Description: Sorption isotherms were generated using an IGAsorp water sorption monitor from Hiden Isochema. […] For BR salt form only: Sorption isotherms were registered on a DVS-1 water sorption monitor from Surface Measurement Systems.

[2] = X-ray powder diffraction: crystallinity and polymorphism; settings: for indications for polymorphism: several crystallization experiments
Description: X-ray powder diagrams were generated using a STOE-STADI P-diffractometer in transmission mode fitted with a MYTHEN-detector and a Cu-anode as X-ray source with monochromatic CuKα1 radiation (λ=1.54056 Å, 40 kV, 40 mA).

[3] = ThermoGravimetry (loss on drying); settings: TG
Description: Thermal gravimetry data were collected with a TG instrument from the Q-series of TA Instruments. This method measures weight changes in a material as a function of temperature under a controlled atmosphere.

Br.CO[C@H]1COCC[C@H]1NC1CCN(C(=O)c2ncnc(NC[C@H]3CCC[C@@H](c4ccc(C)cc4)O3)c2C)CC1 [hydrobromide salt of compound I, (4-((3R,4R)-3-methoxytetrahydro-pyran-4-ylamino)piperidin-1-yl)(5-methyl-6-(((2R,6S)-6-(p-tolyl)tetrahydro-2H-pyran-2-yl)methylamino)pyrimidin-4-yl)methanone hydrobromide]
hygroscopic behavior: uptake of water ([1]; up to 80% r.h. (humidity range 10-80%), hydrobromide): 4.5% | hygroscopic behavior: uptake of water ([1]; up to 80% r.h. (humidity range 10-80%), listed as Hydrobromide Salt, hydrobromide): 4.5% | hygroscopic behavior: deliquescence ([1]; up to 80% r.h., listed as Hydrobromide Salt, hydrobromide): deli- | hygroscopic behavior: deliquescence ([1]; up to 80% r.h., listed as hydrobromide, hydrobromide): irreversibly deliquescent | hygroscopic behavior: deliquescence ([1]; up to 90% r.h.): deli- | hygroscopic behavior: uptake of water ([1]; up to 90% r.h.): 20% | crystallinity ([2]; hydrobromide): medium | crystallinity ([2]; listed as hydrobromide salt of compound of formula (I), hydrobromide): medium crystallinity | indications for polymorphism ([2]; listed as Hydrobromide Salt, hydrobromide): Yes | indications for polymorphism ([2]; listed as hydrobromide, hydrobromide): Different polymorphic modifications | loss on drying [3]: 2.9%

CO[C@H]1COCC[C@H]1NC1CCN(C(=O)c2ncnc(NC[C@H]3CCC[C@@H](c4ccc(C)cc4)O3)c2C)CC1.Cl [hydrochloride salt of compound I, (4-((3R,4R)-3-methoxytetrahydro-pyran-4-ylamino)piperidin-1-yl)(5-methyl-6-(((2R,6S)-6-(p-tolyl)tetrahydro-2H-pyran-2-yl)methylamino)pyrimidin-4-yl)methanone hydrochloride]
hygroscopic behavior: uptake of water ([1]; up to 80% r.h. (humidity range 10-80%), hydrochloride): 15% | hygroscopic behavior: uptake of water ([1]; up to 80% r.h. (humidity range 10-80%), listed as Hydrochloride Salt, hydrochloride): 15% uptake | hygroscopic behavior: deliquescence ([1]; up to 80% r.h., listed as Hydrochloride Salt, hydrochloride): deliquescent | hygroscopic behavior: deliquescence ([1]; up to 80% r.h., listed as hydrochloride, hydrochloride): irreversibly deliquescent | hygroscopic behavior: deliquescence ([1]; up to 90% r.h.): deliquescent | hygroscopic behavior: uptake of water ([1]; up to 90% r.h.): 40% uptake | crystallinity ([2]; hydrochloride): medium | crystallinity ([2]; listed as hydrochloride salt of compound of formula (I), hydrochloride): medium crystallinity | indications for polymorphism ([2]; listed as Hydrochloride Salt, hydrochloride): yes | indications for polymorphism ([2]; listed as hydrochloride, hydrochloride): Different polymorphic modifications | loss on drying [3]: 2.8%

CO[C@H]1COCC[C@H]1NC1CCN(C(=O)c2ncnc(NC[C@H]3CCC[C@@H](c4ccc(C)cc4)O3)c2C)CC1.CS(=O)(=O)O [methanesulfonate salt of compound I, (4-((3R,4R)-3-methoxytetrahydro-pyran-4-ylamino)piperidin-1-yl)(5-methyl-6-(((2R,6S)-6-(p-tolyl)tetrahydro-2H-pyran-2-yl)methylamino)pyrimidin-4-yl)methanone methanesulfonate]
hygroscopic behavior: deliquescence ([1]; up to 80% r.h.): irreversibly deliquescent | hygroscopic behavior: uptake of water ([1]; up to 80% r.h. (humidity range 10-80%), listed as Methanesulfonate Salt, methanesulfonate): 30% | hygroscopic behavior: uptake of water ([1]; up to 80% r.h. (humidity range 10-80%), methanesulfonate): 30% | hygroscopic behavior: uptake of water ([1]; up to 90% r.h.): 45% | crystallinity ([2]; listed as methanesulfonate salt of compound of formula (I), methanesulfonate): medium crystallinity | crystallinity ([2]; methanesulfonate): Medium | indications for polymorphism ([2]; listed as Methanesulfonate Salt, methanesulfonate): No | indications for polymorphism ([2]; listed as methanesulfonate, methanesulfonate): only one polymorphic form

CCS(=O)(=O)O.CO[C@H]1COCC[C@H]1NC1CCN(C(=O)c2ncnc(NC[C@H]3CCC[C@@H](c4ccc(C)cc4)O3)c2C)CC1 [esilate salt of compound I, (4-((3R,4R)-3-methoxytetrahydro-pyran-4-ylamino)piperidin-1-yl)(5-methyl-6-(((2R,6S)-6-(p-tolyl)tetrahydro-2H-pyran-2-yl)methylamino)pyrimidin-4-yl)methanone esilate]
hygroscopic behavior: uptake of water ([1]; up to 80% r.h. (humidity range 10-80%)): 20% | hygroscopic behavior: uptake of water ([1]; up to 80% r.h. (humidity range 10-80%), listed as Esilate Salt): 20% uptake | hygroscopic behavior: deliquescence ([1]; up to 80% r.h., listed as Esilate Salt): deliquescent | hygroscopic behavior: deliquescence ([1]; up to 80% r.h., listed as esilate): irreversibly deliquescent | hygroscopic behavior: deliquescence ([1]; up to 90% r.h.): deliquescent | hygroscopic behavior: uptake of water ([1]; up to 90% r.h.): 45% uptake | crystallinity [2]: high | crystallinity ([2]; listed as esilate salt of compound of formula (I)): high crystallinity | indications for polymorphism ([2]; listed as Esilate Salt): no | indications for polymorphism ([2]; listed as esilate): only one polymorphic form | loss on drying [3]: 2.4%
